Source: patent publication US12012414B1, “Imidazo[1,5-a]pyrido[4,3-e]pyrimidines as CK2 inhibitors” (KING FAISAL UNIVERSITY, priority 2024, dated 2024)

Assays:
[1] = test system: HCT116 (colon); experiment: In vitro cytotoxic activity (MTT) assay, HCT116; format: cell-based; settings: Homo sapiens, HCT-116; HCT116 cells, exposed for 96 hours, 50% inhibition of cell proliferation; read-out: Cytotoxicity activity IC50, HCT116 (colon)
Procedure: (§1) Compounds 1-16 were screened for their in vitro cytotoxic activity utilizing a 3-(4,5-dimethyl-thiazol-2-yl)-2,5-diphenyltetrazolium bromide (MTT) assay against selected cancer human cell lines consisting of PC3 (prostate), HCT116 (colon), A375 (melanoma), H1299 (lung), MIAPaCa-2 (pancreas), HL60 (leukemia), MCF7 (breast), MDA-MB-231 (breast) (T. Mosmann, J. Immunol. Meth., 1983, 65, 55-63). The cells were cultured at 37° C. in RMPI1640 medium supplemented with 10% fetal bovine serum, 50 IU/mL penicillin, and 50 μg/mL streptomycin in a 5% CO2 incubator. All cells were sub-cultured 3 times/week by trypsinisation. Viable cells were seeded and allowed to adhere for 12 hours before a test drug was added in 96-well plates at an initial density of 1.0×10^5 cells/mL. Tumor cell lines were separately exposed to various concentrations of the tested compounds followed by incubation at a temperature of 37° C. during 96 hours inside a medium of fresh RMPI 1640. Cells were subsequently incubated at 37° C. using MTT at 0.5 mg/mL during 4 hours. After removal of supernatant, formazan crystals were dissolved in isopropanol and the optical density was measured at 570 nm. CX-4945 was used as a positive control.

[2] = test system: HL60 (leukemia); experiment: In vitro cytotoxic activity (MTT) assay, HL60; format: cell-based; settings: Homo sapiens, HL-60; HL60 cells, exposed for 96 hours, 50% inhibition of cell proliferation; read-out: Cytotoxicity activity IC50, HL60 (leukemia)
Procedure: as §1

[3] = test system: A375 (melanoma); experiment: In vitro cytotoxic activity (MTT) assay, A375; format: cell-based; settings: Homo sapiens, A-375; A375 cells, exposed for 96 hours, 50% inhibition of cell proliferation; read-out: Cytotoxicity activity IC50, A375 (melanoma)
Procedure: as §1

[4] = test system: MDA-MB-231 (breast); experiment: In vitro cytotoxic activity (MTT) assay, MDA-MB-231; format: cell-based; settings: Homo sapiens; MDA-MB-231 cells, exposed for 96 hours, 50% inhibition of cell proliferation; read-out: Cytotoxicity activity IC50, MDA-MB-231 (breast)
Procedure: as §1

[5] = test system: MIAPaCa-2 (pancreas); experiment: In vitro cytotoxic activity (MTT) assay, MIAPaCa-2; format: cell-based; settings: Homo sapiens, MIA PaCa-2; MIAPaCa-2 cells, exposed for 96 hours, 50% inhibition of cell proliferation; read-out: Cytotoxicity activity IC50, MIAPaCa-2 (pancreas)
Procedure: as §1

[6] = biological target: T1, recombinant human CK2 (Homo sapiens, UniProt P68400); experiment: CK2 Kinase Assay (33P-ATP, substrate peptide RRRDDDSDDD); format: biochemical; settings: recombinant human CK2 holoenzyme, final ATP concentration 15 μM, 10 min at 30° C.; read-out: protein kinase CK2 IC50
T1 construct: purchased Millipore
T1 sequence (P68400 whole entry): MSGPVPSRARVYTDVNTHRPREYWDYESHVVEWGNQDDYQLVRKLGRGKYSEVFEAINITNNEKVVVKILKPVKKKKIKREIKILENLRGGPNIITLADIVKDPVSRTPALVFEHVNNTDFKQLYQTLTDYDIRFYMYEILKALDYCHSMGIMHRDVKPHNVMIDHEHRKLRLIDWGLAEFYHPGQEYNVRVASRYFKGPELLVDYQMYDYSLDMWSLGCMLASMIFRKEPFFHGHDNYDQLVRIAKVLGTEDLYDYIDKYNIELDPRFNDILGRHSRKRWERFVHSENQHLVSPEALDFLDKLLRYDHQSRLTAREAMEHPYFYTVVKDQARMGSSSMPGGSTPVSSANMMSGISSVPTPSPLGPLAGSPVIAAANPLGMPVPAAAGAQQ
T1 sequence (P67870 whole entry partner): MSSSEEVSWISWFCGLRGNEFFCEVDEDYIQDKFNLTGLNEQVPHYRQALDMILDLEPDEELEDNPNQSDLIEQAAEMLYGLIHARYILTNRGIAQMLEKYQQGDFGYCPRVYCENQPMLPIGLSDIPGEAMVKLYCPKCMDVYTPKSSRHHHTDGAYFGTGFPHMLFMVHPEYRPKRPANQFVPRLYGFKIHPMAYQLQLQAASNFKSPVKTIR
Procedure: CK2 Kinase Assay was conducted using the protocol as described in Pierre F. et al; J. Med. Chem. 2011, 54, 635-654. The tested compounds in aqueous solution were added at a volume of 10 μL to a reaction mixture comprising 10 μL of assay dilution buffer (ADB; 20 mM MOPS, pH 7.2, 25 mM β-glycerol phosphate, 5 mM EGTA, 1 mM sodium orthovanadate, and 1 mM dithiothreitol), 10 μL of substrate peptide (RRRDDDSDDD, dissolved in ADB at a concentration of 1 mM), 10 μL of recombinant human CK2 (RROP-holoenzyme, 25 ng dissolved in ADB; Millipore). Reactions were initiated by the addition of 10 μL of ATP solution (90% 75 mMMgCl2, 75 μM ATP (final ATP concentration: 15 μM) dissolved in ADB; 10% [γ-33P] ATP (stock 1 mCi/100 μL; 3000 Ci/mmol (Perkin-Elmer) and maintained for 10 min at 30° C. The reactions were quenched with 100 μL of 0.75% phosphoric acid and then transferred to and filtered through a phosphor cellulose filter plate (Millipore). After washing each well five times with 0.75% phosphoric acid, the plate was dried under vacuum for 5 min and, following the addition of 15 μL of scintillation fluid to each well, the residual radioactivity was measured using a Wallac […] counter. The IC50 values were derived from eight concentrations of test inhibitors.

[7] = test system: H1299 (lung); experiment: In vitro cytotoxic activity (MTT) assay, H1299; format: cell-based; settings: Homo sapiens, NCI-H1299; H1299 cells, exposed for 96 hours, 50% inhibition of cell proliferation; read-out: Cytotoxicity activity IC50, H1299 (lung)
Procedure: as §1

[8] = test system: PC3 (prostate); experiment: In vitro cytotoxic activity (MTT) assay, PC3; format: cell-based; settings: Homo sapiens, PC-3; PC3 cells, exposed for 96 hours, 50% inhibition of cell proliferation; read-out: Cytotoxicity activity IC50, PC3 (prostate)
Procedure: as §1

[9] = test system: MCF7 (breast); experiment: In vitro cytotoxic activity (MTT) assay, MCF7; format: cell-based; settings: Homo sapiens; MCF7 cells, exposed for 96 hours, 50% inhibition of cell proliferation; read-out: Cytotoxicity activity IC50, MCF7 (breast)
Procedure: as §1

IC50 [6]: 74 nM
Compound: O=C(O)c1ncn2c1nc(Nc1cccc(Cl)c1)c1ccncc12 [Compound 1, 5-((3-chlorophenyl)amino)imidazo[1,5-a]pyrido[4,3-e]pyrimidine-3-carboxylic acid]
IC50 [1]: 2000 nM
IC50 [2]: 3600 nM
IC50 [3]: 3800 nM
IC50 [4]: 4500 nM
IC50 [5]: 1300 nM
IC50 [7]: 1900 nM
IC50 [8]: 1700 nM
IC50 [9]: 5400 nM
